According to ChEMBL document CHEMBL4033723, “Succinamide derivatives of melampomagnolide B and their anti-cancer activities” (2017):

Test: Induction of apoptosis in human M9-ENL1 cells assessed as cell death after 24 hrs by Annexin V/PI or 7-AAD staining based flow cytometry
Type: functional
Conditions: M9-ENL1, 24 h, read-out: LC50 (the source's name)

C=C1C(=O)O[C@H]2[C@H]1CC/C(COC(=O)CCC(=O)Nc1nc(N)n[nH]1)=C\CC[C@@]1(C)O[C@@H]21
CC50: 60 µM

C=C1C(=O)O[C@H]2[C@H]1CC/C(COC(=O)CCC(=O)NCc1ccccn1)=C\CC[C@@]1(C)O[C@@H]21
CC50: 14 µM

C=C1C(=O)O[C@H]2[C@H]1CC/C(COC(=O)CCC(=O)NCCCCCCCCCCNC(=O)CCC(=O)OC/C1=C/CC[C@@]3(C)O[C@H]3[C@H]3OC(=O)C(=C)[C@@H]3CC1)=C\CC[C@@]1(C)O[C@@H]21
CC50: 12 µM

C=C1C(=O)O[C@H]2[C@H]1CC/C(COC(=O)CCC(=O)Nc1n[nH]c(SC)n1)=C\CC[C@@]1(C)O[C@@H]21
CC50: 13 µM

C=C1C(=O)O[C@H]2[C@H]1CC/C(COC(=O)CCC(=O)NCCCNC(=O)CCC(=O)OC/C1=C/CC[C@@]3(C)O[C@H]3[C@H]3OC(=O)C(=C)[C@@H]3CC1)=C\CC[C@@]1(C)O[C@@H]21
CC50: 10 µM

C=C1C(=O)O[C@H]2[C@H]1CC/C(COC(=O)CCC(=O)NCCc1ccccn1)=C\CC[C@@]1(C)O[C@@H]21
CC50: 13.5 µM

C=C1C(=O)O[C@H]2[C@H]1CC/C(COC(=O)CCC(=O)N1CCC(F)(F)CC1)=C\CC[C@@]1(C)O[C@@H]21
CC50: 5.2 µM

C=C1C(=O)O[C@H]2[C@H]1CC/C(COC(=O)CCC(=O)NCCCCCNC(=O)CCC(=O)OC/C1=C/CC[C@@]3(C)O[C@H]3[C@H]3OC(=O)C(=C)[C@@H]3CC1)=C\CC[C@@]1(C)O[C@@H]21
CC50: 19 µM

C=C1C(=O)O[C@H]2[C@H]1CC/C(COC(=O)CCC(=O)N1CCN(C)CC1)=C\CC[C@@]1(C)O[C@@H]21
CC50: 8.1 µM

C=C1C(=O)O[C@@H]2C3O[C@]3(C)CC/C=C(\C)CC[C@@H]12 (stereo not given in full)
CC50: 7.5 µM
